The values that follow come from patent publication US20140005165A1, “SUBSTITUTED 3-AZABICYCLO[3.1.0]HEXANE DERIVATIVES USEFUL AS CCR2 ANTAGONISTS” (priority 2011, published 2014).

The first experiment deals with T1, human CCR2 (Homo sapiens, UniProt P41597).
T1 construct: expressed in transfected cells; host or cells: Ba/F3 cells (membrane preparation)
T1 sequence (P41597 whole entry): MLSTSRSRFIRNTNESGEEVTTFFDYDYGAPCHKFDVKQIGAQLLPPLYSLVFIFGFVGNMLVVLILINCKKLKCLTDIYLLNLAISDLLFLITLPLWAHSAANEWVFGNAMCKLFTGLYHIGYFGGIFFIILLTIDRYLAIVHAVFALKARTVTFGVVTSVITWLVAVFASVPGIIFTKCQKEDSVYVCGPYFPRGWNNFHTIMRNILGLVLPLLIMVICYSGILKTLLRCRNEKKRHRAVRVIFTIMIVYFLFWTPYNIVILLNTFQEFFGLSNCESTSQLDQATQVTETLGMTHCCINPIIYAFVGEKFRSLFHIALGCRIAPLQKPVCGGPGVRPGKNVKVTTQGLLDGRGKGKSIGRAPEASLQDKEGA
Nature of the experiment: CCR2 Membrane Binding Assay (SPA radio-ligand binding, 125I-rhMCP-1). The conditions noted are these: membranes from Ba/F3 cells transfected with human CCR2; 0.03 nM 125I-rhMCP-1; 4 h room temperature. As for the experimental part:
The radio-ligand binding assay was done using scintillation proximity assay (SPA) technology. Briefly, membranes (1 μg per assay point) from Ba/F3 cells transfected with human CCR2, and wheat germ agglutinin-coated SPA beads (80 μg per point; Amersham, Arlington Heights, Ill.), were pre-incubated for 30 min at room temperature in CCR2 buffer (50 mM HEPES (pH=7.4), 10 mM MgCl2, 10 mM NaCl, 1 mM CaCL2, 0.1% BSA, 10 μg/ml Saponin). At this point pre-bound SPA bead, membrane complex was incubated at room temperature for 4 h with varying concentrations of punitive CCR2 antagonists (in 1% DMSO, final) and 0.03 nM ^125I-rhMCP-1 in CCR2Buffer (S.A. 2200 Ci/mmol, PerkinElmer Life and Analytical Science, Boston, Mass.; NEX332). Binding competition was measured using a 1450 Microbeta Trilux counter (Wallac, Gaithersburg, Md.). Binding constants (IC50 and slope) were calculated using GraphPad Prism software (GraphPad Software, Inc., La Jolla Calif.).
For the compound `O=C(CNC(=O)[C@H]1[C@@H]2CN([C@H]3CC[C@@H](c4ccc(F)cc4)CC3)C[C@@H]21)Nc1cccc(C(F)(F)F)c1` [Compound 119], the IC50 worked out at 6.1 nM.

As to `O=C(CNC(=O)[C@H]1[C@@H]2CN(C3CCC(O)(c4nccs4)CC3)C[C@@H]21)Nc1cccc(C(F)(F)F)c1` (some centres unmarked) [Compound 120], the IC50 was 3.9 nM. The same measure, in the same setting: the value for `COc1ccc([C@H]2CC[C@@H](N3C[C@@H]4[C@H](C3)[C@H]4C(=O)NCC(=O)Nc3cccc(C(F)(F)F)c3)CC2)cc1` [Compound 130] was 4 nM.

The compound `COc1ccc([C@H]2CC[C@@H](N3C[C@@H]4[C@H](C3)[C@H]4C(=O)NCC(=O)Nc3cccc(C(F)(F)F)c3)CC2)cn1` [Compound 132] had a half-inhibitory concentration (IC50) of 3.4 nM. This IC50 and that of the compound before are within 1.5-fold of each other.

As for `O=C(CNC(=O)[C@H]1[C@@H]2CN([C@H]3CC[C@@H](c4ccc5c(c4)OCO5)CC3)C[C@@H]21)Nc1cccc(C(F)(F)F)c1` [Compound 143], the IC50 was 4.1 nM. On the same count and under the same terms, for `COc1ccc(C2(O)CCC(N3C[C@@H]4[C@H](C3)[C@H]4C(=O)NCC(=O)Nc3cccc(C(F)(F)F)c3)CC2)cn1` (some centres unmarked) [Compound 147] the value was 4.5 nM. Same read-out and setting: the value for `Cn1ncc2cc([C@H]3CC[C@@H](N4C[C@@H]5[C@H](C4)[C@H]5C(=O)NCC(=O)Nc4cccc(C(F)(F)F)c4)CC3)ccc21` [Compound 150] was 6.7 nM.

On to `O=C(CNC(=O)[C@H]1[C@@H]2CN(C3CCC(O)(c4ccc5c(c4)OCO5)CC3)C[C@@H]21)Nc1cccc(C(F)(F)F)c1` (some centres unmarked) [Compound 152], for which the IC50 amounted to 10 nM. On the same count and under the same terms, the value for `COc1ncc([C@H]2CC[C@@H](N3C[C@@H]4[C@H](C3)[C@H]4C(=O)NCC(=O)Nc3cccc(C(F)(F)F)c3)CC2)c(OC)n1` [Compound 153] was 4.5 nM; that for `O=C(CNC(=O)[C@H]1[C@@H]2CN([C@H]3CC[C@@H](NC(=O)OCc4ccccc4)CC3)C[C@@H]21)Nc1cccc(C(F)(F)F)c1` [Compound 154] was 8.3 nM. The compound `O=C(CNC(=O)[C@H]1[C@@H]2CN([C@H]3CC[C@@H](c4ccc(-c5ccccc5)cc4)CC3)C[C@@H]21)Nc1cccc(C(F)(F)F)c1` [Compound 156] returned a 50% inhibitory concentration (IC50) of 7.4 nM. This IC50 and that of the compound before are within 1.5-fold of each other.

Staying with this experiment, now noted: membranes from Ba/F3 cells transfected with human CCR2; 0.03 nM 125I-rhMCP-1; class symbols.
Turning to `O=C(CNC(=O)[C@H]1[C@@H]2CN([C@H]3CC[C@@H](c4ccc(=O)[nH]c4)CC3)C[C@@H]21)Nc1cccc(C(F)(F)F)c1` [Compound 117], the half-inhibitory concentration (IC50) was under 50 nM. On the same count and under the same terms, the value for `O=C(CNC(=O)[C@H]1[C@@H]2CN([C@H]3CC[C@@H](c4cnc(O)nc4)CC3)C[C@@H]21)Nc1cccc(C(F)(F)F)c1` [Compound 118] was 201 to 700 nM; that for `O=C(CNC(=O)[C@H]1[C@@H]2CN(C3CCC(O)(c4cncs4)CC3)C[C@@H]21)Nc1cccc(C(F)(F)F)c1` (some centres unmarked) [Compound 121] was under 50 nM; that for `O=C(CNC(=O)[C@H]1[C@@H]2CN(C3CCC(O)(c4nccs4)CC3)C[C@@H]21)Nc1cccc(C(F)(F)F)c1` (some centres unmarked) [Compound 122] was 51 to 200 nM. `O=C(CNC(=O)[C@H]1[C@@H]2CN(C3CCC(O)(c4cncs4)CC3)C[C@@H]21)Nc1cccc(C(F)(F)F)c1` (some centres unmarked) [Compound 123] showed an IC50 of 201 to 700 nM.

Turning to `CC(C)(C)OC(=O)[C@H]1CC[C@@H](N2C[C@@H]3[C@H](C2)[C@H]3C(=O)NCC(=O)Nc2cccc(C(F)(F)F)c2)CC1` [Compound 124], the concentration for half-maximal inhibition (IC50) lay in the range of 201 to 700 nM. `Cc1[nH]c2c(C(F)(F)F)cccc2c1CCNC(=O)[C@H]1[C@@H]2CN([C@H]3CC[C@@H](c4ccccc4)CC3)C[C@@H]21` [Compound 125] came in with an IC50 of 201 to 700 nM.

Take `N#Cc1ccc([C@H]2CC[C@@H](N3C[C@@H]4[C@H](C3)[C@H]4C(=O)NCC(=O)Nc3cccc(C(F)(F)F)c3)CC2)cc1` [Compound 126]: the IC50 was under 50 nM. As for `O=C([C@H]1[C@@H]2CN([C@H]3CC[C@@H](c4ccccc4)CC3)C[C@@H]21)N1CCN(c2cccc(C(F)(F)F)c2)C(=O)C1` [Compound 127], the “IC50 (nM)” value was “D (compounds with IC50 values between 701 nM and 110 nM are designated as D class compounds)”. For the compound `O=C([C@H]1[C@@H]2CN([C@H]3CC[C@@H](c4ccccc4)CC3)C[C@@H]21)N1CCC(Nc2nccc(C(F)(F)F)n2)CC1` [Compound 128], the concentration for half-maximal inhibition (IC50) is 201 to 700 nM.

In turn, `CN(C(=O)[C@H]1[C@@H]2CN([C@H]3CC[C@@H](c4ccccc4)CC3)C[C@@H]21)[C@H]1CCN(c2ncc(C(F)(F)F)cn2)C1` [Compound 129] returned a half-inhibitory concentration (IC50) of 201 to 700 nM. With `COc1ccc([C@H]2CC[C@H](N3C[C@@H]4[C@H](C3)[C@H]4C(=O)NCC(=O)Nc3cccc(C(F)(F)F)c3)CC2)cc1` [Compound 131], the “IC50 (nM)” value was “D (compounds with IC50 values between 701 nM and 110 nM are designated as D class compounds)”. As for `COc1ncc([C@H]2CC[C@@H](N3C[C@@H]4[C@H](C3)[C@H]4C(=O)NCC(=O)Nc3cccc(C(F)(F)F)c3)CC2)cn1` [Compound 133], the concentration for half-maximal inhibition (IC50) was under 50 nM. For the compound `O=C(CNC(=O)[C@H]1[C@@H]2CN([C@H]3CC[C@@H](c4cnc(O)nc4O)CC3)C[C@@H]21)Nc1cccc(C(F)(F)F)c1` [Compound 134], the IC50 was in the range of 51 to 200 nM. The compound `O=C(NCCc1cc(C(F)(F)F)cc(C(F)(F)F)c1)[C@H]1[C@@H]2CN([C@H]3CC[C@@H](c4ccccc4)CC3)C[C@@H]21` [Compound 135] gave a concentration for half-maximal inhibition (IC50) of 201 to 700 nM. Still for that read-out and setting: the value for `CC(C)(C)OC(=O)N[C@H]1CC[C@@H](N2C[C@@H]3[C@H](C2)[C@H]3C(=O)NCC(=O)Nc2cccc(C(F)(F)F)c2)CC1` [Compound 136] was 51 to 200 nM. On the same count and under the same terms, the value for `O=C(CNC(=O)[C@H]1[C@@H]2CN(C3CC=C(c4ccc5c(c4)OCO5)CC3)C[C@@H]21)Nc1cccc(C(F)(F)F)c1` (some centres unmarked) [Compound 139] was 201 to 700 nM. The compound `O=C(CNC(=O)[C@H]1[C@@H]2CN([C@H]3CC[C@@H](C4Cc5ccccc5O4)CC3)C[C@@H]21)Nc1cccc(C(F)(F)F)c1` (some centres unmarked) [Compound 140] had a half-maximal inhibitory concentration (IC50) of 201 to 700 nM. In turn, `O=C(CNC(=O)[C@H]1[C@@H]2CN([C@H]3CC[C@@H](NC(=O)c4ccccc4)CC3)C[C@@H]21)Nc1cccc(C(F)(F)F)c1` [Compound 141] yielded a 50% inhibitory concentration (IC50) of under 50 nM. As for `O=C(CNC(=O)[C@H]1[C@@H]2CN([C@H]3CC[C@@H](NS(=O)(=O)C4CC4)CC3)C[C@@H]21)Nc1cccc(C(F)(F)F)c1` [Compound 142], the “IC50 (nM)” value is “D (compounds with IC50 values between 701 nM and 110 nM are designated as D class compounds)”. `COc1ccc(CC2CCCC(N3C[C@@H]4[C@H](C3)[C@H]4C(=O)NCC(=O)Nc3cccc(C(F)(F)F)c3)C2)cc1` (some centres unmarked) [Compound 144] gave a half-inhibitory concentration (IC50) of 51 to 200 nM. Still for that read-out and setting: the value for `COc1ccc(C[C@H]2CC[C@@H](N3C[C@@H]4[C@H](C3)[C@H]4C(=O)NCC(=O)Nc3cccc(C(F)(F)F)c3)CC2)cc1` [Compound 145] was 51 to 200 nM; that for `COc1ccc(CC2CCCC(N3C[C@@H]4[C@H](C3)[C@H]4C(=O)NCC(=O)Nc3cccc(C(F)(F)F)c3)C2)cc1` (some centres unmarked) [Compound 146] was 201 to 700 nM. Take `O=C(CNC(=O)[C@H]1[C@@H]2CN([C@H]3CC[C@@H](Nc4ccc(F)c(F)c4)CC3)C[C@@H]21)Nc1cccc(C(F)(F)F)c1` [Compound 148]: the IC50 was under 50 nM. The compound `O=C(CNC(=O)[C@H]1[C@@H]2CN([C@H]3CC[C@H](Nc4ccc(F)c(F)c4)CC3)C[C@@H]21)Nc1cccc(C(F)(F)F)c1` [Compound 149] yielded a half-inhibitory concentration (IC50) of 201 to 700 nM. The same measure, in the same setting: for `Cn1ncc2cc([C@H]3CC[C@H](N4C[C@@H]5[C@H](C4)[C@H]5C(=O)NCC(=O)Nc4cccc(C(F)(F)F)c4)CC3)ccc21` [Compound 151] the value was 51 to 200 nM; for `O=C(CNC(=O)[C@H]1[C@@H]2CN([C@H]3CC[C@H](NC(=O)OCc4ccccc4)CC3)C[C@@H]21)Nc1cccc(C(F)(F)F)c1` [Compound 155], 201 to 700 nM.

Take `O=C(CNC(=O)[C@H]1[C@@H]2CN([C@H]3CC[C@@H](c4cnn(Cc5ccccc5)c4)CC3)C[C@@H]21)Nc1cccc(C(F)(F)F)c1` [Compound 157]: the half-maximal inhibitory concentration (IC50) was under 50 nM. Take `O=C(CNC(=O)[C@H]1[C@@H]2CN(CC3CC3)C[C@@H]21)Nc1cccc(C(F)(F)F)c1` [Compound 158]: the “IC50 (nM)” value is “D (compounds with IC50 values between 701 nM and 110 nM are designated as D class compounds)”. `O=C(CNC(=O)[C@H]1[C@@H]2CN([C@H]3CC[C@@H](c4ccc(OCc5ccccc5)cc4)CC3)C[C@@H]21)Nc1cccc(C(F)(F)F)c1` [Compound 160] showed an IC50 of under 50 nM. Same read-out and setting: for `O=C(CNC(=O)[C@H]1[C@@H]2CN([C@H]3CC[C@H](c4ccc(OCc5ccccc5)cc4)CC3)C[C@@H]21)Nc1cccc(C(F)(F)F)c1` [Compound 161] the value was 201 to 700 nM. Still for that read-out and setting: for `O=C(NCCc1cccc(C(F)(F)F)c1)C1[C@H]2CN(C3CCCOC3)C[C@@H]12` (some centres unmarked) [Compound 162] the value was 201 to 700 nM; for `O=C(CNC(=O)[C@H]1[C@@H]2CN([C@H]3CC[C@@H](c4cc(Br)c(O)c(Br)c4)CC3)C[C@@H]21)Nc1cccc(C(F)(F)F)c1` [Compound 163], under 50 nM.

By IC50 is commonly meant the concentration that inhibits the measured activity by half. Lower therefore signals inhibition by little substance.
